In US7135464B2, “Method of administering decitabine” (SuperGen, Inc., priority 2002, dated 2006):
“And” between values parts separate entries of the source, which are not always exact repeats. Equal values may be shown once. Read-outs that look alike come from different tables or passages of the source.

What was measured:
[1] = aqueous solution, cited from earlier work
[2] = aqueous solution
[3] = cited from earlier work

SMILES: Nc1ncn([C@H]2C[C@H](O)[C@@H](CO)O2)c(=O)n1 [decitabine, 5-aza-2′-deoxycytidine]
- decrease of concentration of decitabine ([1]; after 4 hours at 25° C.): about 10%
- decrease of concentration of decitabine ([1]; after 24 hours at 4° C.): about 10%
- decitabine remaining in active form ([2]; storage at 4° C. for 6 days): less than 50%
- decitabine remaining in active form ([2]; storage at 25° C. for 1 day): less than 50%
- decitabine concentration in patients ([3]; 100 mg/m^2 as a 3-hour infusion): about 0.4 μg/ml and ~2 μM
- total urinary excretion, % of the administered dose ([3]; humans): less than 1%
- volume of distribution ([3]; humans): about 4.6 L/kg
